Tests used:
[1] = Absorption, emission and Stokes' shift of ligands and their zinc complexes (Table 1); format: physicochemical
[2] = Fluorescence of free ligand 4; format: physicochemical
Procedure: (§1) FIG. 3 provides a fluorescence spectra of 4 (10 μM) in EtOH:HEPES=1:1 (pH=7.2) upon addition of 5 equiv. of different ions.
(§2) The ligand 4 gave a weak fluorescence peak at 580 nm (φfl=0.05). […] NIR emission was relatively stronger in pure methanol. The green fluorescence turn-on could be easily observed, making it also useful for naked eye detection (FIG. 3). […] In other words, the probe molecule 4 is silent to Cd^2+ cation, as its binding could not remove the phenolic proton (a necessary step to simultaneously shift the emission and turn on the ESIPT for NIR emission).
(§3) In order to clarify the interaction of 4 with different metal ions, the UV-vis absorption and fluorescence spectra of 4 (10 μM in EtOH:H2O=1:1 solutions) were studied by addition of 5 equiv. of different cations.

[3] = UV-vis absorption and fluorescence response/titration of 4 with Zn^2+ in EtOH/HEPES; format: binding
Procedure: (§4) FIG. 2 provides an absorbance spectra of 4 (10 μM) in EtOH/HEPES (10 mM) (1:1) (pH=7.2), upon addition of 5 equiv. of different cations.
as §1
(§5) The binding property of 4 to Zn^2+ cation was examined in EtOH/HEPES (FIG. 2). As the Zn^2+ cation was added, a new absorption band was generated at about 450 nm.
as §2, §3
A It is important to note that, while the ligand 4 can bind Zn^2+ cation well, the same is not true for the Cd^2+ cation, although the atomic configuration ([Ar]3d^10 for Zn^2+ and [Kr]4d^10 for Cd^2+). On the basis of quick disappearance of the —OH signal at ˜10 ppm (^1H NMR in FIG. 5), the initial step might involve a weak interaction of metal cation with the imine —CH═N—, forming intermediate 5. […] The Zn^2+ cation in 6a could further interact with the adjacent hydroxyl group to form the fused 6-membered ring “B”, which requires twisting of the “HBO” fragment from the Schiff base fragment (ring A).

[4] = UV-vis absorption and fluorescence response of 4 to Cd^2+; format: binding
Procedure: as §4, §1, §5, §2, §3
When Cd^2+ was used, the interaction pattern appeared to be quite different. […] Therefore, the equilibrium between 6b and 8 might occur without forming the fused rings A-B in 4-Cd. […]

[5] = UV-vis absorption and fluorescence response of 4 to Al^3+
Procedure: as §4, §1, §5, §2, §3

[6] = UV-vis absorption and fluorescence response of 4 to 5 equiv. of different cations
Procedure: as §4, §1, §2, §3

[7] = tested on: human cancer cells (HepG2) and human umbilical vein endothelial cells (HUVECs); assay: Confocal fluorescence imaging of intracellular Zn^2+ with sensor 4; format: cell-based
Procedure: FIG. 8A provides confocal fluorescence images of Human mesenchymal stem cells (hMSCs) excited with a 488 laser. The image were collected at bright field on an Olympus FV1000-Filter Confocal Microscopy. a→b: the cells were incubated with dye 4 for 60 mins at 37° C.
FIG. 8B provides confocal fluorescence images of Human mesenchymal stem cells (hMSCs) excited with a 488 laser. The images were collected at green channel (535-565 nm) on an Olympus FV1000-Filter Confocal Microscopy. a→b: the cells were incubated with dye 4 for 60 mins at 37° C.
FIG. 8C provides confocal fluorescence images of Human mesenchymal stem cells (hMSCs) excited with a 488 laser. The images were collected at bright field on an Olympus FV1000-Filter Confocal Microscopy. c→d: the cells were first treated with Zn(OAc)2 (30 μM) for 30 mins and further exposed to dye 4 (10 μM) for another 60 mins at 37° C.
FIG. 8D provides confocal fluorescence images of Human mesenchymal stem cells (hMSCs) excited with a 488 laser. The images were collected green channel (535-565 nm) on an Olympus FV1000-Filter Confocal Microscopy. the cells were first treated with Zn(OAc)2 (30 μM) for 30 mins and further exposed to dye 4 (10 μM) for another 60 mins at 37° C.
To illustrate the potential biological application, sensor 4 was applied to visualize intracellular Zn^2+ in both human cancer cells (HepG2) and human umbilical vein endothelial cells (HUVECs) (See FIGS. 8A-D). FIGS. 8A-D show confocal fluorescence images of Human mesenchymal stem cells (hMSCs) excited with a 488 laser. The images were collected at bright field (a and c) and green channel (535-565 nm; b and d) on an Olympus FV1000-Filter Confocal Microscopy. a→b: the cells were incubated with dye 4 for 60 mins at 37° C.; c→d: the cells were first treated with Zn(OAc)2 (30 μM) for 30 mins and further exposed to dye 4 (10 μM) for another 60 mins at 37° C. For this purpose, cells were first incubated with 30 μM of Zn^2+ for 30 mins and then further treated with 10 μM dye 4 for another […]. […]

[8] = Absorption and fluorescence of free sensor 1 in aqueous medium; format: physicochemical
Procedure: Sensor 1 was synthesized by refluxing the corresponding dialdehyde (as described in W. Chen, Y. Xing, and Y. Pang, Org. Lett., 2011, 13, 1262) with hydrazinopyridine in EtOH for 2 hours, and was collected as yellow solid in >90% yield.
(§6) (Cr: ΦF=0.63; Al: ΦF=0.31).

[9] = UV-vis and fluorescence response of sensor 1 to Al^3+ in H2O:EtOH=8:2
Excerpt: as §6

[10] = Fluorescence response of sensor 1 to Fe^3+ in H2O:EtOH=8:2
Excerpt: as §6

[11] = UV-vis and fluorescence response of sensor 1 to mono- and divalent metal ions
Excerpt: as §6

[12] = tested on: human mesenchymal stem cells (hMSCs); assay: Confocal fluorescence imaging of intracellular Cr^3+ and Al^3+ with sensor 1; format: cell-based
Excerpt: FIG. 15A provides a confocal fluorescence images of Human mesenchymal stem cells (hMSCs) excited with a Diode laser (405 nm) on an Olympus FV-1000 laser scanning microscope. The images were collected at bright field. […]
FIG. 15B provides a confocal fluorescence images of Human mesenchymal stem cells (hMSCs) excited with a Diode laser (405 nm) on an Olympus FV-1000 laser scanning microscope. The images were collected at bright field. […] 15E was collected from 535-565 nm.
FIG. 15C provides a confocal fluorescence images of Human mesenchymal stem cells (hMSCs) excited with a Diode laser (405 nm) on an Olympus FV-1000 laser scanning microscope. The images were collected at bright field. […] 15F was collected from 505-525 nm
FIG. 15D provides a confocal fluorescence images of Human mesenchymal stem cells (hMSCs) excited with a Diode laser (405 nm) on an Olympus FV-1000 laser scanning microscope. The images were collected fluorescent channels. […]
FIG. 15E provides a confocal fluorescence images of Human mesenchymal stem cells (hMSCs) excited with a Diode laser (405 nm) on an Olympus FV-1000 laser scanning microscope. The images were collected fluorescent channels. […] 15E was collected from 535-565 nm.
FIG. 15F provides a confocal fluorescence images of Human mesenchymal stem cells (hMSCs) excited with a Diode laser (405 nm) on an Olympus FV-1000 laser scanning microscope. The images were collected fluorescent channels. […] 15F was collected from 505-525 nm
The potential application of 1 for both Cr^3+ and Al^3+ in biological samples was examined by using confocal fluorescence microscopy. […] Bright-field measurements confirmed that the cells, after being treated with Cr^3+/Al^3+ and 1, were viable throughout the imaging experiments. […] Response to Cr^3+ and Al^3+ ions with distinctly different colors (yellow-green and cyan, respectively) from the cell samples raised the prospect that the Cr^3+ and Al^3+ ions could be simultaneously determined and distinguished

[13] = 10 μM in EtOH:H2O=1:1, 5 equiv.

Compound: Cc1ccc2nc(-c3cc(O)c(C=NNc4ccccn4)cc3O)oc2c1 [Sensor 4]
- Absorption λmax (nm) [1]: 413 nm
- Stokes' shift [1]: 6971 cm⁻¹
- Emission λem (nm) ([1]; first or only emission peak): 580 nm
- Stokes' shift ([1]; value in brackets): 167 nm
- fluorescence peak of the ligand [2]: 580 nm
- φfl [2]: 0.05
- φfl upon addition of Zn^2+ ([3]; 1:1 EtOH/H2O): 0.26
- new absorption band upon Zn^2+ addition ([3]; EtOH/HEPES): about 450 nm
- association constant Ka ([3]; from the fluorescence titration data): 228000 M⁻¹
- Stokes' shift of NIR emission ([3]; upon Zn^2+ binding): ~260 nm
- NIR emission peak upon addition of Zn^2+ (keto tautomer) ([3]; upon addition of Zn^2+): ~720 nm
- emission peak upon addition of Zn^2+ (enol tautomer) ([3]; upon addition of Zn^2+): 545 nm
- selectivity toward Zn^2+ binding ([3]; versus other cations): excellent selectivity
- fluorescence response to Cd^2+ cation [4, 13]: no observable fluorescence response
- binding to Cd^2+ cation ([4]; absorption, EtOH/HEPES): weak binding
- enhanced emission induced by Al^3+ [5]: ~610 nm
- bathochromic shift of absorption on addition of other cations such as Al^3+ ([5]; EtOH/HEPES): did not cause a notable bathochromic shift
- dual emission on addition of other cations (K^+, Na^+, Ag^+, Cd^2+, Ca^2+, Mg^2+, Pb^2+, Ni^2+, Hg^2+, Co^2+, Cu^2+, Cr^3+, Fe^3+, Al^3+) [6]: did not induce the dual emissions at 545 and 720 nm
- fluorescence effect of Ag^+, Co^2+, Ni^2+ and Cu^2+ [6, 13]: quenched the fluorescence
- fluorescence effect of Cr^3+, Fe^3+ and Al^3+ [6, 13]: slightly increased the fluorescence
- red shift of fluorescence signal on addition of Cr^3+, Fe^3+ and Al^3+ [6, 13]: 25-37 nm
- response to K^+, Na^+, Ca^2+ ions [6, 13]: no response
- cell permeability [7]: permeable to cells
- fluorescence in cells treated with Zn^2+ and the dye ([7]; 30 μM Zn^2+ 30 mins, then 10 μM dye): strong fluorescence
- fluorescence in cells treated with only the dye ([7]; dye only, green channel 535-565 nm, 488 laser): very weak fluorescence

Compound: Oc1c(C=NNc2ccccn2)cc(C=NNc2ccccn2)cc1-c1nc2ccccc2o1 [Sensor 1]
- absorption major peak (π-π*) [8]: 315 nm
- absorption minor peak (n-π*) [8]: 432 nm
- Stokes' shift ([8]; free sensor, H2O:EtOH=8:2): 180 nm
- ΦF ([8]; free sensor, H2O:EtOH=8:2): 0.1
- Stokes' shift of the Al^3+ complex emission [9]: 170 nm
- stability of fluorescence with Al^3+ over time [9]: quite stable
- fluorescence response upon addition of Al^3+ ([9]; H2O:EtOH=8:2): immediate fluorescence turn-on
- ΦF with Al^3+ ([9]; H2O:EtOH=8:2): 0.31
- emission λem with Al^3+ ([9]; H2O:EtOH=8:2, blue-green): ~527 nm
- fluorescence response upon addition of Fe^3+ [10]: immediate fluorescence turn-on
- time to quenching of fluorescence with Fe^3+ [10]: ≤ 5 min
- fluorescence effect of Mn^2+, Ni^2+, Pb^2+, Ba^2+, Ag^+, Hg^2+ ([11]; 10 equiv.): slight quenching
- response to Ca^2+, Mg^2+, Na^+ and K^+ ([11]; 10 equiv.): negligible response
- change in UV-vis spectra on addition of M^+ and M^2+ cations ([11]; 10 equiv., except Cu^2+): almost no change
- fluorescence effect of Cu^2+ ([11]; 10 equivalents): quenched the fluorescence
- fluorescence change on addition of divalent metal ions ([11]; 10 equivalents, H2O:EtOH=8:2, except Cu^2+): negligible fluorescence change
- cell permeability [12]: permeable to cells
- intracellular fluorescence, control without added metal ions ([12]; 10 μM dye): negligible intracellular fluorescence
- cell viability during imaging (bright-field) ([12]; after treatment with Cr^3+/Al^3+ and 1): viable
- intracellular fluorescence after Al^3+ ([12]; then 10 μM sensor 30 minutes): significant increase in the fluorescence
- intracellular fluorescence after Cr^3+ ([12]; then 10 μM sensor 30 minutes): significant increase in the fluorescence
- Stokes' shift of the Cr^3+ complex emission: 195 nm
- new π-π* absorption band upon addition of Cr^3+: about 358 nm
- selectivity as chemosensor for Cr^3+ (10 equiv. other metal ions, then 10 equiv. Cr^3+): highly selective
- fluorescence response upon addition of Cr^3+ (H2O:EtOH=8:2): immediate fluorescence turn-on
- ΦF with Cr^3+ (H2O:EtOH=8:2): 0.63
- emission λem with Cr^3+ (H2O:EtOH=8:2, yellow green): ~556 nm

— patent US9891237B2, “Fluorescent sensor for metal cation detection based on 2-(2′-hydroxyphenyl)benzazole containing a Schiff base moiety” (priority 2013, dated 2018)
